The results in this text go back to US8722742B2, “Chemical compounds having antiviral activity against Dengue virus and other Flaviviruses” (Centro de Ingenieria Genetica y Biotecnologia, priority 2008, dated 2014).

For the test, the system named is DEN2 virus. Kind of test: Plaque inhibition assay in Vero cells. Conditions: Dengue virus, 120 h. The class given is cell-based, Dengue virus serotype 2. The procedure:
Vero cells were grown in 24-wells plates until the monolayer reached approximately 90% confluence and two washes of the monolayer were done with medium MEM without SFB. Preparations of DEN2 virus equivalent to a multiplicity of infection of 0.1 were preincubated in MEM medium with and without presence of chemical compounds (100 uM) for about 1 hour at room temperature. Then, the virus/compounds mixture and virus/control mixture were incubated with monolayers for 1 hour at 37° C. After finished incubation, the cells were washed again and incubated during 5 days at 37° C. in high-density medium (MEM supplemented with non-essential amino acids, SFB 1%, carboxymethylcellulose 1%) to facilitate formation of lysis plaques. Blue Black Naphtol 0.1% in sodium acetate 0.15 mol/L was used for staining. In each experiment two replics were tested for each point and three independent determinations were done. The percentage of infection inhibition was calculated according to the following expression: […]
The inhibition is how much of the control response was suppressed. Low values mean a weak effect, high ones a strong effect. In the case of `O=C(CN1C(=O)c2ccccc2S1(=O)=O)Nc1ccc(S(=O)(=O)N2CCCCCC2)cc1` [C-SIJ04078], the inhibition at 100 µM fell in the range of 70 to 100%.
For `O=S(=O)(Nc1ccccc1OC(F)F)c1ccc(S(=O)(=O)N2CCOCC2)cc1` [C-SIJ01066] the value was 70 to 100%.
The same measure for `COc1ccc(/C=N/NC(=O)Cc2ccc([N+](=O)[O-])cc2)cc1OC` [C-SIJ12143]: 70 to 100%; for `CC1CCCC(C)N1S(=O)(=O)c1ccc(S(=O)(=O)NCCc2ccncc2)cc1` (stereo not shown) [C-SIJ01047]: 70 to 100%; for `CS(=O)(=O)N1CCN(S(=O)(=O)c2ccc(S(=O)(=O)N3CCOCC3)cc2)CC1` [C-SIJ06103]: 70 to 100%.
`CCCCNS(=O)(=O)c1ccc(S(=O)(=O)N2CCN(C(C)=O)CC2)cc1` [C-SIJ01026] yielded an inhibition at 100 µM of 30 to 100%.
The same measure for `O=S(=O)(NCCC1=CCCCC1)c1ccc(S(=O)(=O)NCc2ccc3c(c2)OCO3)cc1` [C-SIJ01009]: 70 to 100%.
For `CCN(Cc1ccccc1)S(=O)(=O)c1ccc(S(=O)(=O)N2CCOCC2)cc1` [C-SIJ06097] the value was 70 to 100%.
As for `CC(C)CNS(=O)(=O)c1ccc(S(=O)(=O)N2C(C)CCCC2C)cc1` (stereo not shown) [C-SIJ01045], the inhibition at 100 µM is 30 to 100%.
For `O=S(=O)(NC(c1ccccc1)c1ccccc1)c1ccc(S(=O)(=O)N2CCCCC2)cc1` [C-SIJ01039] the value was 70 to 100%.
For `COC(CNS(=O)(=O)c1ccc(S(=O)(=O)N2CCOCC2)cc1)OC` [C-SIJ01056] the value was 70 to 100%; for `O=S(=O)(NCc1ccc(F)cc1)c1ccc(S(=O)(=O)N2CCCCC2)cc1` [C-SIJ01033], 30 to 100%.
For `NS(=O)(=O)c1ccc(S(=O)(=O)N2CCOCC2)cc1` [C-SIJ06099] the value was 30 to 100%; for `O=S(=O)(NCc1ccc2c(c1)OCO2)c1ccc(S(=O)(=O)NC2CC2)cc1` [C-SIJ01008], 30 to 100%.
In turn, `O=S(=O)(NCc1ccccc1)c1ccc(S(=O)(=O)NC2CCCCC2)cc1` [C-SIJ01002] displayed an inhibition at 100 µM of 70 to 100%.
For `CC(C)(C)C(=O)CNS(=O)(=O)c1ccc(S(=O)(=O)N2CCOCC2)cc1` [C-SIJ01062] the value was 70 to 100%; for `O=S(=O)(NCc1ccccc1)c1ccc(S(=O)(=O)NC2CC2)cc1` [C-SIJ01003], 30 to 100%; for `O=S(=O)(NCCO)c1ccc(S(=O)(=O)N2CCCCC2)cc1` [C-SIJ01042], 70 to 100%.
The same measure for `CC(=O)N1CCN(S(=O)(=O)c2ccc(S(=O)(=O)NC3CCCCC3)cc2)CC1` [C-SIJ01023]: 70 to 100%; for `O=CN1CCN(S(=O)(=O)c2ccc(S(=O)(=O)N3CCOCC3)cc2)CC1` [C-SIJ06102]: 30 to 100%; for `O=S(=O)(NCCc1ccccc1)c1ccc(S(=O)(=O)N2CCCCC2)cc1` [C-SIJ01031]: 70 to 100%.
For `O=S(=O)(NCC1CC1)c1ccc(S(=O)(=O)N2CCCCC2)cc1` [C-SIJ01034] the value was 30 to 100%; for `O=S(=O)(NCc1ccc2c(c1)OCO2)c1ccc(S(=O)(=O)NC2CCCCC2)cc1` [C-SIJ01006], 70 to 100%.
The molecule `O=C(O)[C@H]1CCCN(S(=O)(=O)c2ccc(S(=O)(=O)N3CCCCC3)cc2)C1` [C-SIJ06111] gave an inhibition at 100 µM of 70 to 100%.
The same measure for `O=C(CC1C(=O)c2ccccc2C1=O)Oc1ccc(-c2ccc(OC(=O)CN3C(=O)c4ccccc4C3=O)cc2)cc1`: 0 to 30%; for `O=S(=O)(NCc1ccco1)c1ccc(S(=O)(=O)NC2CCCCC2)cc1` [C-SIJ01020]: 70 to 100%.
For `CC1CCCC(C)N1S(=O)(=O)c1ccc(S(N)(=O)=O)cc1` (stereo not shown) [C-SIJ01051] the value was 30 to 100%; for `O=c1c2cc3c(=O)n(CCCn4ccnc4)c(=O)c3cc2c(=O)n1CCCn1ccnc1`, 0 to 30%.
